Values quoted from earlier work as cited in patent US11268059B2, “Apparatuses, systems, and methods for culturing cells” (eXo Cell, LLC, priority 2015, dated 2022).

How the values were obtained:
BAT = settings: humans
[1] = test system: obese, diabetic yellow KK mice
ex vivo human adipocytes = settings: Ang II stimulation
[2] = test system: isolated adipocytes and differentiated adipocytes (diffAds)

## O=S(=O)(Nc1ccc(CCNC[C@H](O)c2cccnc2)cc1)c1ccc(-c2nc(-c3ccc(C(F)(F)F)cc3)cs2)cc1 [L-796568]
Obese human males
  anti-obesity effects: did not generate notable anti-obesity effects
  energy expenditure: improved energy expenditure

## Nc1nc(CC(=O)Nc2ccc(CCNC[C@H](O)c3ccccc3)cc2)cs1 [migrabegron]
BAT
  BAT activation: activates BAT

## C[C@H](Cc1ccc2c(c1)OC(C(=O)[O-])(C(=O)[O-])O2)NC[C@H](O)c1cccc(Cl)c1.[Na+].[Na+] [CL-316243]
[1]
  effect on obesity: ameliorated obesity

## angiotensin II (DRVYIHPF; Angiotensin-2; UniProt P01019 25-32, looked up) [Ang II, angiotensin II, component of the renin-angiotensin system]
Ex vivo human adipocytes
  lipolysis: inhibited lipolysis
[2]
  adipogenesis: may induce adipogenesis
